System: Rhizoctonia solani AG-1
Test: Fungicidal activity against Rice Sheath Blight (RSB) disease
Conditions: Rice Sheath Blight; concentration 2 ppm

Compound | RSB (Fungicidal Activities, C.V.)
COC=C(C(=O)OC)c1ccccc1CON=C(C)c1cccc(OC(F)=C(c2ccccc2)C(F)(F)F)c1 [Compound 150] | 55%

Same assay, conditions: Rice Sheath Blight; concentration 10 ppm

Compound | RSB (Fungicidal Activities, C.V.)
COC=C(C(=O)OC)c1ccccc1CON=C(C)c1cccc(OC(F)=C(c2ccccc2)C(F)(F)F)c1 [Compound 150] | 65%

Same assay, conditions: Rice Sheath Blight; concentration 50 ppm

Compound | RSB (Fungicidal Activities, C.V.)
COC=C(C(=O)OC)c1ccccc1CON=Cc1cccc(OC(F)=C(c2ccc(F)cc2)C(F)(F)F)c1 [Compound 113] | 20%
CNC(=O)C(=COC)c1ccccc1CON=C(C)c1cccc(OC(F)=Cc2cccc(Cl)c2)c1 [Compound 62] | 0%
CNC(=O)C(=COC)c1ccccc1CON=C(C)c1cccc(OC(F)=Cc2ccc(Cl)c(C)c2)c1 [Compound 61] | 23%
COC=C(C(=O)OC)c1ccccc1CON=C(C)c1cccc(OC(F)=C(c2ccc(C)c(C)c2)C(F)(F)F)c1 [Compound 153] | 55%
COC=C(C(=O)OC)c1ccccc1CON=C(C)c1cccc(OC(F)=C(c2ccccc2)C(F)(F)F)c1 [Compound 150] | 92%

System: Puccinia recondita
Test: Fungicidal activity against Wheat Leaf Rust (WLR) disease
Type: in vivo
Conditions: Wheat Leaf Rust; concentration 2 ppm

Compound | WLR (Fungicidal Activities, C.V.)
COC=C(C(=O)OC)c1ccccc1CON=Cc1cccc(OC(F)=C(c2ccc(F)cc2)C(F)(F)F)c1 [Compound 113] | 86%
CNC(=O)C(=COC)c1ccccc1CON=C(C)c1cccc(OC(F)=Cc2cccc(Cl)c2)c1 [Compound 62] | 83%
COC=C(C(=O)OC)c1ccccc1CON=C(C)c1cccc(OC(F)=C(c2ccc(C)c(C)c2)C(F)(F)F)c1 [Compound 153] | 91%
COC=C(C(=O)OC)c1ccccc1CON=C(C)c1cccc(OC(F)=C(c2ccccc2)C(F)(F)F)c1 [Compound 150] | 95%

Same assay, conditions: Wheat Leaf Rust; concentration 10 ppm

Compound | WLR (Fungicidal Activities, C.V.)
COC=C(C(=O)OC)c1ccccc1CON=Cc1cccc(OC(F)=C(c2ccc(F)cc2)C(F)(F)F)c1 [Compound 113] | 98%
COC=C(C(=O)OC)c1ccccc1CON=C(C)c1cccc(OC(F)=C(c2ccc(C)c(C)c2)C(F)(F)F)c1 [Compound 153] | 100%
COC=C(C(=O)OC)c1ccccc1CON=C(C)c1cccc(OC(F)=C(c2ccccc2)C(F)(F)F)c1 [Compound 150] | 100%

Same assay, conditions: Wheat Leaf Rust; concentration 50 ppm

Compound | WLR (Fungicidal Activities, C.V.)
COC=C(C(=O)OC)c1ccccc1CON=Cc1cccc(OC(F)=C(c2ccc(F)cc2)C(F)(F)F)c1 [Compound 113] | 100%
CNC(=O)C(=COC)c1ccccc1CON=C(C)c1cccc(OC(F)=Cc2cccc(Cl)c2)c1 [Compound 62] | 99%
CNC(=O)C(=COC)c1ccccc1CON=C(C)c1cccc(OC(F)=Cc2ccc(Cl)c(C)c2)c1 [Compound 61] | 43%
COC=C(C(=O)OC)c1ccccc1CON=C(C)c1cccc(OC(F)=C(c2ccc(C)c(C)c2)C(F)(F)F)c1 [Compound 153] | 100%
COC=C(C(=O)OC)c1ccccc1CON=C(C)c1cccc(OC(F)=C(c2ccccc2)C(F)(F)F)c1 [Compound 150] | 100%

System: Phytophthora infestans
Test: not given
Type: in vivo
Conditions: Tomato Late Blight; concentration 50 ppm

Compound | TLB (Fungicidal Activities, C.V.)
COC=C(C(=O)OC)c1ccccc1CON=Cc1cccc(OC(F)=C(c2ccc(F)cc2)C(F)(F)F)c1 [Compound 113] | 21%
CNC(=O)C(=COC)c1ccccc1CON=C(C)c1cccc(OC(F)=Cc2cccc(Cl)c2)c1 [Compound 62] | 0%
CNC(=O)C(=COC)c1ccccc1CON=C(C)c1cccc(OC(F)=Cc2ccc(Cl)c(C)c2)c1 [Compound 61] | 0%
COC=C(C(=O)OC)c1ccccc1CON=C(C)c1cccc(OC(F)=C(c2ccc(C)c(C)c2)C(F)(F)F)c1 [Compound 153] | 13%
COC=C(C(=O)OC)c1ccccc1CON=C(C)c1cccc(OC(F)=C(c2ccccc2)C(F)(F)F)c1 [Compound 150] | 50%

System: Botrytis cinerae
Test: Fungicidal activity against Cucumber Gray Mold Rot (CGM) disease
Type: in vivo
Conditions: Cucumber Gray Mold Rot; concentration 50 ppm
Description: Botrytis cinerae, which was isolated from cucumber infected thereby, was inoculated on a PDA agar medium and cultured under a 12L/12D cycle at 25° C. for 15 days to form spore. The spores were scraped, filtered through a gauze and then suspended in potato dextrose liquid medium at a concentration of 1×10^6 spore/ml. The spore suspension was sprayed on a cucumber plant having one leaf. The cucumber plant was held in a humidified room at 20° C. for 3 days. L.A. on a leaf was measured to calculate an C.V.

Compound | CGM (Fungicidal Activities, C.V.)
COC=C(C(=O)OC)c1ccccc1CON=Cc1cccc(OC(F)=C(c2ccc(F)cc2)C(F)(F)F)c1 [Compound 113] | 0%
CNC(=O)C(=COC)c1ccccc1CON=C(C)c1cccc(OC(F)=Cc2cccc(Cl)c2)c1 [Compound 62] | 25%
CNC(=O)C(=COC)c1ccccc1CON=C(C)c1cccc(OC(F)=Cc2ccc(Cl)c(C)c2)c1 [Compound 61] | 33%
COC=C(C(=O)OC)c1ccccc1CON=C(C)c1cccc(OC(F)=C(c2ccc(C)c(C)c2)C(F)(F)F)c1 [Compound 153] | 20%
COC=C(C(=O)OC)c1ccccc1CON=C(C)c1cccc(OC(F)=C(c2ccccc2)C(F)(F)F)c1 [Compound 150] | 44%

System: Erysiphae graminis
Test: Fungicidal activity against Barley Powdery Mildew (BPM) disease
Type: in vivo
Conditions: Barley Powdery Mildew; concentration 2 ppm

Compound | BPM (Fungicidal Activities, C.V.)
COC=C(C(=O)OC)c1ccccc1CON=Cc1cccc(OC(F)=C(c2ccc(F)cc2)C(F)(F)F)c1 [Compound 113] | 86%
CNC(=O)C(=COC)c1ccccc1CON=C(C)c1cccc(OC(F)=Cc2cccc(Cl)c2)c1 [Compound 62] | 0%
COC=C(C(=O)OC)c1ccccc1CON=C(C)c1cccc(OC(F)=C(c2ccc(C)c(C)c2)C(F)(F)F)c1 [Compound 153] | 83%
COC=C(C(=O)OC)c1ccccc1CON=C(C)c1cccc(OC(F)=C(c2ccccc2)C(F)(F)F)c1 [Compound 150] | 100%

Same assay, conditions: Barley Powdery Mildew; concentration 10 ppm

Compound | BPM (Fungicidal Activities, C.V.)
COC=C(C(=O)OC)c1ccccc1CON=Cc1cccc(OC(F)=C(c2ccc(F)cc2)C(F)(F)F)c1 [Compound 113] | 96%
COC=C(C(=O)OC)c1ccccc1CON=C(C)c1cccc(OC(F)=C(c2ccc(C)c(C)c2)C(F)(F)F)c1 [Compound 153] | 99%
COC=C(C(=O)OC)c1ccccc1CON=C(C)c1cccc(OC(F)=C(c2ccccc2)C(F)(F)F)c1 [Compound 150] | 100%

Same assay, conditions: Barley Powdery Mildew; concentration 50 ppm

Compound | BPM (Fungicidal Activities, C.V.)
COC=C(C(=O)OC)c1ccccc1CON=Cc1cccc(OC(F)=C(c2ccc(F)cc2)C(F)(F)F)c1 [Compound 113] | 100%
CNC(=O)C(=COC)c1ccccc1CON=C(C)c1cccc(OC(F)=Cc2cccc(Cl)c2)c1 [Compound 62] | 100%
CNC(=O)C(=COC)c1ccccc1CON=C(C)c1cccc(OC(F)=Cc2ccc(Cl)c(C)c2)c1 [Compound 61] | 86%
COC=C(C(=O)OC)c1ccccc1CON=C(C)c1cccc(OC(F)=C(c2ccc(C)c(C)c2)C(F)(F)F)c1 [Compound 153] | 100%
COC=C(C(=O)OC)c1ccccc1CON=C(C)c1cccc(OC(F)=C(c2ccccc2)C(F)(F)F)c1 [Compound 150] | 100%

System: Pyricularia oryzae Carvara KA301
Test: not given
Type: in vivo
Conditions: Rice Blast; concentration 2 ppm

Compound | RCV (Fungicidal Activities, C.V.)
CNC(=O)C(=COC)c1ccccc1CON=C(C)c1cccc(OC(F)=Cc2cccc(Cl)c2)c1 [Compound 62] | 92%
COC=C(C(=O)OC)c1ccccc1CON=C(C)c1cccc(OC(F)=C(c2ccc(C)c(C)c2)C(F)(F)F)c1 [Compound 153] | 0%
COC=C(C(=O)OC)c1ccccc1CON=C(C)c1cccc(OC(F)=C(c2ccccc2)C(F)(F)F)c1 [Compound 150] | 83%

Same assay, conditions: Rice Blast; concentration 10 ppm

Compound | RCV (Fungicidal Activities, C.V.)
COC=C(C(=O)OC)c1ccccc1CON=C(C)c1cccc(OC(F)=C(c2ccc(C)c(C)c2)C(F)(F)F)c1 [Compound 153] | 25%
COC=C(C(=O)OC)c1ccccc1CON=C(C)c1cccc(OC(F)=C(c2ccccc2)C(F)(F)F)c1 [Compound 150] | 100%

Same assay, conditions: Rice Blast; concentration 50 ppm

Compound | RCV (Fungicidal Activities, C.V.)
COC=C(C(=O)OC)c1ccccc1CON=Cc1cccc(OC(F)=C(c2ccc(F)cc2)C(F)(F)F)c1 [Compound 113] | 0%
CNC(=O)C(=COC)c1ccccc1CON=C(C)c1cccc(OC(F)=Cc2cccc(Cl)c2)c1 [Compound 62] | 96%
CNC(=O)C(=COC)c1ccccc1CON=C(C)c1cccc(OC(F)=Cc2ccc(Cl)c(C)c2)c1 [Compound 61] | 91%
COC=C(C(=O)OC)c1ccccc1CON=C(C)c1cccc(OC(F)=C(c2ccc(C)c(C)c2)C(F)(F)F)c1 [Compound 153] | 86%
COC=C(C(=O)OC)c1ccccc1CON=C(C)c1cccc(OC(F)=C(c2ccccc2)C(F)(F)F)c1 [Compound 150] | 100%

Source: US6552080B1, “Fungicidal compounds having a fluorovinyl-or fluoropropenyl-oxyphenyloxime moiety and process for the preparation thereof” (Korea Research Institute of Chemical Technology, priority 1999, dated 2003)
